Assay results reported in patent publication US6703502B2 (priority 1997, dated 2004).

Molecular target: α7 nAChR subtype (Rattus norvegicus, UniProt Q05941)
Assay type: binding
Conditions: read-out: KD of radioligand

Chain of α7 nAChR subtype (Q05941 23-502 limits assumed): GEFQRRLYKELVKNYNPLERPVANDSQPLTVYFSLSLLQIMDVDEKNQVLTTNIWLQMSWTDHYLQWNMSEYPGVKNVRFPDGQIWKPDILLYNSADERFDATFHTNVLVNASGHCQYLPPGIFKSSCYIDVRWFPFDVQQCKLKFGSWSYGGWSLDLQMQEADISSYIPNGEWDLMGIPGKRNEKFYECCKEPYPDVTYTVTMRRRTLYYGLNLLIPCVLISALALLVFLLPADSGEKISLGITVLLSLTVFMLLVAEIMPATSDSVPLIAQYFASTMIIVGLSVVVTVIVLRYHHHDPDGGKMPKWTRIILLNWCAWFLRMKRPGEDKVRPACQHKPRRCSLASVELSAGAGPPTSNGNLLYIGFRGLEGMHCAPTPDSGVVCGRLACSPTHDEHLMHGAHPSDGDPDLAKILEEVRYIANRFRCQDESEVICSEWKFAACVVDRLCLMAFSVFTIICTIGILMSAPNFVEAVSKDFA

[^125I]-α-Bungarotoxin [^125I-α-BTX]
Kd: 1.67 nM
